O=C(O)c1ccc(C(=O)O)o1
solubility (mole fraction)
Settings | in MIBK | in acetic acid | in acetonitrile | in isobutanol | in methanol | in methyl acetate | in n-butanol | in water
313.15 K | 0.000136 | 0.000235 | 6.11e-05 | 0.00168 | 0.00428 | 7.78e-05 | 0.00266 | 0.000203
318.15 K | 0.000184 | 0.000272 | 9.15e-05 | 0.00198 | 0.00489 | 0.000113 | 0.00302 | 0.000225
323.15 K | 0.000253 | 0.000331 | 0.000112 | 0.0023 | 0.0054 | 0.000164 | 0.00346 | 0.000283
328.15 K | 0.000296 | 0.000404 | 0.000136 | 0.0027 | 0.0068 | 0.000238 | 0.00408 | 0.00037
333.15 K | 0.000338 | 0.000478 | 0.000166 | 0.00323 | 0.00801 | 0.000285 | 0.00469 | 0.000421
338.15 K | 0.000429 | 0.000555 | 0.000212 | 0.00372 | 0.00869 | 0.000377 | 0.00524 | 0.000465
343.15 K | 0.000536 | 0.000717 | 0.000248 | 0.00412 | 0.00894 | 0.000464 | 0.00572 | 0.000598
348.15 K | 0.000631 | 0.00082 | 0.000278 | 0.00482 | – | 0.000549 | 0.00663 | 0.000641
353.15 K | 0.000666 | 0.000965 | 0.000341 | 0.00548 | – | 0.00062 | 0.00741 | 0.000781
358.15 K | 0.000721 | 0.00115 | 0.000409 | 0.00607 | – | 0.000659 | 0.0082 | 0.000908
363.15 K | 0.000863 | 0.00134 | 0.000487 | 0.00682 | – | 0.000721 | 0.00916 | 0.0011

Source: BigSolDB 2.1
